Source: patent US20210244686A1, “Novel Systems And Methods For The Therapeutic Use of Cannabinoids or Cannabinoid Analogs to Increase The Lipid Order of Cholesterol Containing Cell Membranes” (The Regents of the University of Colorado a body corporate, priority 2018, published 2021)

Assays:
[1] = tested on: SKNBE2 neuroblastoma cells; test: Flow cytometric analysis of rhodamine-glibenclamide staining in live cells; format: cell-based, human; settings: live cells, flow cytometry
[2] = tested on: endoplasmic reticulum in SKNBE2 and HaCaT keratinocyte cells; test: Confocal microscopy of rhodamine-glibenclamide staining, ER structure; format: cell-based, human; settings: for alteration of the structure of the endoplasmic reticulum: SKNBE2 and HaCaT keratinocyte cells
Experimental: FIG. 16. Rhodamine-glibenclamide staining in live cells is visualized by confocal microscopy in live cells. ER structure is perturbed after 2 hours of exposure to CBD and o-1602, but not for o-1821 exposure.

HEK293T cells = test: Live cell microscopy apoptosis assay (caspase 3/7 dye); format: cell-based; settings: for apoptotic response to combinatorial 25-hydroxy cholesterol/CBD treatment: 25-hydroxy cholesterol 15 μg/ml, CBD 20 μM, U18666A 10 μM or VULM 1457 5 μM, 24 hours
Experimental: In order to gain further insight into the sensitivity of CBD treated cells to 25-hydroxy cholesterol, the present inventors repeated the apoptosis assay in SK-N-BE(2) and HEK293T cells with combinatorial 25-hydroxy cholesterol/CBD stimulation using sublethal doses of 25-hydroxy cholesterol (15 μg/ml) and CBD (20 μM) in the presence or absence of either the chemical inhibitor of cholesterol transport (U18666A, 10 μM) or cholesterol storage (VULM 1457, 5 μM).
FRAP experiments reveal that DHA and CBD have opposing effects on the lateral diffusion of fluorescently labelled cholesterol in synthetic membranes. Although this implies that CBD increases lipid order and that DHA decreases lipid order, it remains unclear how relevant these biophysical effects of CBD and DHA are to cellular physiology. As a result, the present inventors sought to determine whether CBD and DHA have opposing effects on cells. To this end, the present inventors repeated the live cell apoptosis assays in cells exposed to increasing doses of DHA to determine how DHA affects cell death.

[3] = FRAP of NBD-cholesterol in synthetic membrane monolayers; settings: DHA 20 μM plus CBD
Text: CBD's ability to affect cholesterol orientation in both synthetic and cell derived ER membranes implies that CBD may contribute to increased lipid order. The ability of cholesterol oxidase assays to reveal alterations in lipid order has been previously reported in studies noting that cholesterol oxidase can preferentially target caveolar domains, which are ordered lipid domains. Another hallmark of lipid order is a decrease in lateral diffusion of lipids. As a result, the present inventors aimed to measure CBD's ability to perturb the lateral diffusion of fluorescently labelled cholesterol (NBD-cholesterol) in synthetic membranes. The present inventors deposited PC SUVs containing 20% moles of cholesterol and 2% moles NBD-cholesterol on glass-bottom multi-well imaging plates, followed by ultra-sonification to construct fluorescently labelled membrane monolayers. Using these monolayers and confocal microscopy, the inventor's performed fluorescence recovery after photobleaching (FRAP) experiments to measure the kinetics of recovery of fluorescent cholesterol. […] This effect of CBD on lateral diffusion could be rescued with simultaneous treatment with the lipid disordering agent DHA (FIGS. 6G, I). There are two proposed models for how DHA affects cholesterol in membranes. […]

SK-N-BE(2) cells = test: Live cell microscopy apoptosis assay (caspase 3/7 dye); settings: for apoptotic response to combinatorial 25-hydroxy cholesterol/CBD treatment: 25-hydroxy cholesterol 15 μg/ml, CBD 20 μM, U18666A 10 μM or VULM 1457 5 μM, 24 hours
Experimental: To accurately measure cellular apoptosis over time, the present inventors performed live cell microscopy experiments with cells loaded with both DNA and caspase 3/7 dyes, which enables continuous and precise quantification of apoptosis at the single cell level.
Cell viability for SK-N-BE(2) cells was conducted using a fluorometric cell viability assay using Resazurin (PromoKine) according to the manufacturer's instructions. […] Dyes were added at the time of seeding, 18-24 hours prior to performing experiments.
Experiments were performed using an ImageXpress MicroXL microscope and a 10× objective, where images were acquired for each well at the indicated time-points using DAPI and FITC filter sets. […] Percent apoptotic cells was calculated from the sum of apoptotic cell pixels divided by the sum of all cell pixels for each field of view.

[4] = DHA 75 μM with MBCD 300 μM or CBD 6.25 μM

Row | Molecule | rhodamine-glibenclamide fluorescence [1] | alteration of the structure of the endoplasmic reticulum [2] | other results
1 | CC(C)c1c(C(=O)Nc2ccccc2)c(-c2ccccc2)c(-c2ccc(F)cc2)n1CC[C@@H](O)C[C@@H](O)CC(=O)O [Atorvastatin] | Enhanced fluorescence | – | –
2 | C=C(C)[C@@H]1CCC(C)=C[C@H]1c1c(O)cc(CCCCC)c(C(=O)O)c1O [Cannabidiolic Acid, cannabidiolic acid] | Enhanced fluorescence | not | –
3 | CC/C=C\C/C=C\C/C=C\C/C=C\C/C=C\C/C=C\CCC(=O)O [DHA] | – | – | apoptosis (HEK293T cells; relatively low doses of DHA): induce apoptosis; effect of CBD on lateral diffusion with simultaneous DHA [3]: rescued; apoptosis (SK-N-BE(2) cells; relatively low doses of DHA): induce apoptosis
4 | O=C1[C@H](CC[C@H](O)c2ccc(F)cc2)[C@@H](c2ccc(O)cc2)N1c1ccc(F)cc1 [Ezetimibe] | Enhanced fluorescence | – | –
5 | CCCCCCC(C)(C)c1cc(OC)c(C2C=C(CO)C3CC2C3(C)C)c(OC)c1 (stereo not drawn) [HU-308, 4-[4-(1,1-dimethylheptyl)-2,6-dimethoxyphenyl]-6,6-dimethyl-bicyclo[3.1.1]hept-2-ene-2-methanol] | Enhanced fluorescence | – | –
6 | CCN(CC)CCO[C@H]1CC[C@@]2(C)C(=CC[C@@H]3[C@@H]2CC[C@]2(C)C(=O)CC[C@@H]32)C1 [U18666A] | – | – | apoptotic response to combinatorial 25-hydroxy cholesterol/CBD treatment (HEK293T cells): restore the apoptotic response; apoptotic response to combinatorial 25-hydroxy cholesterol/CBD treatment (SK-N-BE(2) cells): restore the apoptotic response
7 | CC(C)c1cccc(C(C)C)c1NC(=O)Nc1ccc(Sc2ccc([N+](=O)[O-])cc2)cc1 [VULM 1457] | – | – | apoptotic response to combinatorial 25-hydroxy cholesterol/CBD treatment (HEK293T cells): restore the apoptotic response; apoptotic response to combinatorial 25-hydroxy cholesterol/CBD treatment (SK-N-BE(2) cells): restore the apoptotic response
8 | C=C(C)[C@@H]1CCC(C)=C[C@H]1c1c(O)cc(O)cc1CCCCC [abnormal CBD, 4-[(1R,6R)-3-Methyl-6-(1-methylethenyl)-2-cyclohexen-1-yl]-5-pentyl-1,3-benzenediol] | Enhanced fluorescence | not | –
9 | C=C(C)[C@@H]1CCC(C)=C[C@H]1c1c(C)cc(O)cc1O [o-1602, 5-methyl-4-[(1R,6R)-3-methyl-6-(1-methylethenyl)-2-cyclohexen-1-yl]-1,3-benzenediol] | Enhanced fluorescence | observed | ER structure ([2]; after 2 hours of exposure, live cells): perturbed
10 | C[C@H](CO)NC(=O)CCC/C=C\C/C=C\C/C=C\C/C=C\C(C)(C)CCCCC#N [o-1821] | Enhanced fluorescence | not | –
11 | methyl beta cyclodextrin [MBCD] | – | – | effect on DHA induced apoptosis (HEK293T cells; [4]): delay apoptosis; effect on DHA induced apoptosis (SK-N-BE(2) cells; [4]): completely cancel apoptosis
